Experimental data: the supplement of paper PMC11451515

System: NOMO1
Test: cell viability relative to DMSO control; higher = less cytotoxic
Conditions: 48 h
Summary of the method: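 Viability, reported as a per-plate percentage of DMSO wells with cell-free wells as background, came from CellTiter-Glo One luminescence. Reading took place after 48 h at 37°C. Before that, NOMO1 or SEM (500 cells/well) or P12-Ichikawa (1000 cells/well) leukemia cells, adapted for at least four passages in each medium, were seeded in 1536-well plates (5 μl) and pin-dosed with library compounds in DMSO, 47 μM to 0.79 nM over 11 threefold points.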

[1] = HPLM + 10% dialyzed FBS, 0.000781 µM
[2] = HPLM + 10% dialyzed FBS, 0.00234 µM
[3] = HPLM + 10% dialyzed FBS, 0.00702 µM
[4] = HPLM + 10% dialyzed FBS, 0.0211 µM
[5] = HPLM + 10% dialyzed FBS, 0.0632 µM
[6] = HPLM + 10% dialyzed FBS, 0.19 µM
[7] = HPLM + 10% dialyzed FBS, 0.569 µM
[8] = HPLM + 10% dialyzed FBS, 1.71 µM
[9] = HPLM + 10% dialyzed FBS, 5.12 µM
[10] = HPLM + 10% dialyzed FBS, 15.4 µM
[11] = HPLM + 10% dialyzed FBS, 46.1 µM
[12] = RPMI 5 mM glucose + 10% FBS, 0.000781 µM
[13] = RPMI 5 mM glucose + 10% FBS, 0.00234 µM
[14] = RPMI 5 mM glucose + 10% FBS, 0.00702 µM
[15] = RPMI 5 mM glucose + 10% FBS, 0.0211 µM
[16] = RPMI 5 mM glucose + 10% FBS, 0.0632 µM
[17] = RPMI 5 mM glucose + 10% FBS, 0.19 µM
[18] = RPMI 5 mM glucose + 10% FBS, 0.569 µM
[19] = RPMI 5 mM glucose + 10% FBS, 1.71 µM
[20] = RPMI 5 mM glucose + 10% FBS, 5.12 µM
[21] = RPMI 5 mM glucose + 10% FBS, 15.4 µM
[22] = RPMI 5 mM glucose + 10% FBS, 46.1 µM
[23] = RPMI 5 mM glucose + 10% dialyzed FBS, 0.000781 µM
[24] = RPMI 5 mM glucose + 10% dialyzed FBS, 0.00234 µM
[25] = RPMI 5 mM glucose + 10% dialyzed FBS, 0.00702 µM
[26] = RPMI 5 mM glucose + 10% dialyzed FBS, 0.0211 µM
[27] = RPMI 5 mM glucose + 10% dialyzed FBS, 0.0632 µM
[28] = RPMI 5 mM glucose + 10% dialyzed FBS, 0.19 µM
[29] = RPMI 5 mM glucose + 10% dialyzed FBS, 0.569 µM
[30] = RPMI 5 mM glucose + 10% dialyzed FBS, 1.71 µM
[31] = RPMI 5 mM glucose + 10% dialyzed FBS, 5.12 µM
[32] = RPMI 5 mM glucose + 10% dialyzed FBS, 15.4 µM
[33] = RPMI 5 mM glucose + 10% dialyzed FBS, 46.1 µM

Row | SMILES | cell viability [1] [%] | cell viability [2] [%] | cell viability [3] [%] | cell viability [4] [%] | cell viability [5] [%] | cell viability [6] [%] | cell viability [7] [%] | cell viability [8] [%] | cell viability [9] [%] | cell viability [10] [%] | cell viability [11] [%] | cell viability [12] [%] | cell viability [13] [%] | cell viability [14] [%] | cell viability [15] [%] | cell viability [16] [%] | cell viability [17] [%] | cell viability [18] [%] | cell viability [19] [%] | cell viability [20] [%] | cell viability [21] [%] | cell viability [22] [%] | cell viability [23] [%] | cell viability [24] [%] | cell viability [25] [%] | cell viability [26] [%] | cell viability [27] [%] | cell viability [28] [%] | cell viability [29] [%] | cell viability [30] [%] | cell viability [31] [%] | cell viability [32] [%] | cell viability [33] [%]
1 | CN(C)CCCNC(=O)c1ccc(-c2cc(O)c3ncccc3c2)cc1 | 113 | 110 | 109 | 107 | 105 | 85.9 | 117 | 98.8 | 114 | 86.7 | 60.1 | 89.1 | 89.5 | 96.2 | 99.5 | 103 | 84 | 86.1 | 87.7 | 97.2 | 85.9 | 82.4 | 96.3 | 94.6 | 112 | 98.1 | 102 | 112 | 94.2 | 101 | 106 | 91.1 | 62.8
2 | COC(=O)[C@@H](N)CCCNC(=N)N[N+](=O)[O-] | 92.9 | 97.2 | 105 | 88 | 103 | 118 | 99.1 | 96.7 | 104 | 93.9 | 103 | 90 | 85.6 | 96.3 | 88.9 | 86.9 | 86.3 | 92.4 | 88.1 | 92.6 | 93.3 | 102 | 76.9 | 96.3 | 93.8 | 95.7 | 97.4 | 103 | 97.9 | 93.4 | 94.2 | 101 | 105
3 | CCNC(=O)[C@H]1O[C@@H](n2cnc3c(N)nc(NCCc4ccc(CCC(=O)O)cc4)nc32)[C@H](O)[C@@H]1O | 104 | 83.1 | 98.9 | 103 | 95.7 | 104 | 96.6 | 95.6 | 87.3 | 96.6 | 91 | 104 | 91.6 | 94 | 102 | 89.4 | 89.3 | 86.9 | 90.6 | 89.9 | 90.8 | 84.1 | 89.3 | 104 | 100 | 93.5 | 92.3 | 90.8 | 96.9 | 88.7 | 94.5 | 78.8 | 87.8
4 | COc1ccc(Nc2cc(-c3cnc(N)nc3)nc(N3CCOCC3)n2)cn1 | 105 | 105 | 84.5 | 97.2 | 83.3 | 87 | 76.6 | 79.9 | 54.7 | 46.8 | 39.6 | 82.6 | 90.2 | 88.2 | 84.4 | 83.4 | 88 | 78.4 | 84.8 | 60.5 | 65.4 | 52.7 | 86.8 | 91.8 | 85.3 | 88 | 91.6 | 76.8 | 71.3 | 75.1 | 56.4 | 56.8 | 44.5
5 | CO[C@H]1C[C@@H]2CC[C@@H](C)[C@@](O)(O2)C(=O)C(=O)N2CCCC[C@H]2C(=O)O[C@H]([C@H](C)C[C@@H]2CC[C@@H](OCCO)[C@H](OC)C2)CC(=O)[C@H](C)/C=C(/C)[C@@H](O)[C@@H](OC)C(=O)[C@H](C)C[C@H](C)\C=C/C=C\C=C/1C | 91.8 | 97.5 | 95.7 | 92.9 | 81.7 | 95.4 | 80.7 | 68.8 | 73.8 | 64.1 | 57.4 | 86.5 | 94.6 | 97.8 | 99.4 | 98.4 | 94.2 | 85.4 | 88 | 84.8 | 61.3 | 70.8 | 85 | 91.2 | 84.5 | 76.7 | 85 | 78.1 | 78.7 | 73.1 | 76.3 | 58.9 | 61.5
6 | COC[C@H]1OC(=O)C2=COC3=C2[C@@]1(C)\C4=C(\[C@@H]5CC[C@H](O)[C@@]5(C)C[C@H]4OC(C)=O)C3=O | 106 | 112 | 117 | 111 | 132 | 134 | 118 | 113 | 88.6 | 93.1 | 70.6 | 98.9 | 111 | 117 | 107 | 123 | 114 | 117 | 109 | 110 | 102 | 87.6 | 88.2 | 103 | 110 | 106 | 118 | 126 | 115 | 119 | 97.9 | 94 | 83.5
